Target: T1, Alpha-mannosidase 2 (Drosophila melanogaster, UniProt Q24451)
T1 sequence (Q24451 whole entry): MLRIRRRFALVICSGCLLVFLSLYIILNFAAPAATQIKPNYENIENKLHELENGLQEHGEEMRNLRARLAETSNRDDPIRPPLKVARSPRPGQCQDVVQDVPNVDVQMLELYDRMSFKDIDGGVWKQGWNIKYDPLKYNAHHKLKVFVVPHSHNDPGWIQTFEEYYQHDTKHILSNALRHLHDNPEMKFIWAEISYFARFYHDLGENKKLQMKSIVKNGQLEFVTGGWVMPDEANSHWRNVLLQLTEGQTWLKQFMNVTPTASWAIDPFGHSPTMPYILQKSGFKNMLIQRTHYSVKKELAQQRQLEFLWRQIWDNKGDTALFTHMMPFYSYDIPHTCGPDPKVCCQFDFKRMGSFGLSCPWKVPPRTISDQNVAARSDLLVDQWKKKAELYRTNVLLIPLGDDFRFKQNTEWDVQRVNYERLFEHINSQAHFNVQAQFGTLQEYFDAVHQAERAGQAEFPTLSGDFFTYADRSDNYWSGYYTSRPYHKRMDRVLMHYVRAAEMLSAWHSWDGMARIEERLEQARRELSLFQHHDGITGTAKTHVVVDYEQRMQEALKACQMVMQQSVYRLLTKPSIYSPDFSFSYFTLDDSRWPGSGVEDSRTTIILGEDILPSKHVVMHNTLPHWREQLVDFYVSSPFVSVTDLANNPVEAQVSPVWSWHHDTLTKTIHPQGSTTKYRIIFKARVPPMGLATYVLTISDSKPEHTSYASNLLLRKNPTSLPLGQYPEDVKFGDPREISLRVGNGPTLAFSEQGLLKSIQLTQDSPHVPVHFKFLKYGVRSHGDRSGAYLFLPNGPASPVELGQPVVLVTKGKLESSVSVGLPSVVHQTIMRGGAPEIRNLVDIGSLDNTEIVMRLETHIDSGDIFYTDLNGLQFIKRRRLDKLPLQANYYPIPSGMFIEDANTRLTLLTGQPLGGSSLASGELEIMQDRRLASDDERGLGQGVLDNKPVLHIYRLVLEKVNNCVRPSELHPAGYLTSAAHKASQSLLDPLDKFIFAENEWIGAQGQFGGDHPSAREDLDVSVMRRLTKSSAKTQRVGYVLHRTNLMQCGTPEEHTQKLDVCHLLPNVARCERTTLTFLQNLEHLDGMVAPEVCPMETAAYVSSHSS
Test: Inhibition Assay
Protocol: The rate of hydrolysis catalyzed by drosophila golgi alpha-mannosidase II (dGMII)and in the presence of different concentration of inhibitor was measured fluorometrically and Ki values were determined from Dixon plots.

Row | Compound | IC50 [µM] | Ki [µM]
1 | N[C@H]1[C@@H](O)[C@@H](O)[C@@H](O)[C@H]1O [Mannostatin analogue, 4b] | 100 | 
2 | C[S+]([O-])[C@@H]1[C@@H](N)[C@@H](O)[C@@H](O)[C@H]1O (some centres not stated) [Mannostatin B, 2] |  | 0.15

Source: BindingDB's records for doi:10.1002/cbic.200800538 (University of Toronto, 2009)
